The source of these data is patent US20130252930A1 (BIOMARIN PHARMACEUTICAL INC., priority 2010, published 2013).

The term IC50 denotes the concentration at which inhibition is half-maximal. The term inhibition denotes how much of the control response was suppressed. As a reminder, the half-life is the time in which the quantity being followed falls by half. Higher therefore signals slow decline.

Read-outs that look alike come from different tables or passages of the source. A value given as a limit tells only on which side of the number the result lay.

Series [1] deals with T1, CYP17 (human testicular microsome) (Homo sapiens, UniProt P05093).
T1 construct: using microsomal fraction from human testis (Celsis Cat #S00110) as the enzyme source; tissue Celsis S00110; host or cells: human testis microsomal fraction
T1 sequence (P05093 1-508): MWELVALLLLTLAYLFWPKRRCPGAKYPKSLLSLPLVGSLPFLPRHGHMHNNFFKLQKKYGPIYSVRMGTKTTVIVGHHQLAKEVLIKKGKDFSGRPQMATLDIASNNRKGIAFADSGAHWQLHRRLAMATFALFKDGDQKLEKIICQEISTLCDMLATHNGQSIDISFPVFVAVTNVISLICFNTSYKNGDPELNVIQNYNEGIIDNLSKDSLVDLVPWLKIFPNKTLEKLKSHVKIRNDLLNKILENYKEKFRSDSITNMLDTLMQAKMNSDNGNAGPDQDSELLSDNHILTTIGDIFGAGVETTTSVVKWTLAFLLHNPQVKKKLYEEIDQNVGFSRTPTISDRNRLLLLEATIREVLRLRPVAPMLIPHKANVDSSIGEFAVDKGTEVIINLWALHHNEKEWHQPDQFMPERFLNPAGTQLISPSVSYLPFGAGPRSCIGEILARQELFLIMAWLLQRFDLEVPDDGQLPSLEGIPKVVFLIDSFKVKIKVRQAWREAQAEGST
The experiment in a line: CYP17 enzymatic assay (IC50) (Biological Example 4). It is filed as biochemical.

The target of series [2] is T1, CYP17 (human testicular microsome). The experiment in a line: CYP17 enzymatic assay (% inhibition at 1 nM) (Biological Example 12). The class given is biochemical. As to conditions: compound at 1 nM.
Series [3] in a line: Human liver microsome stability assay (Biological Example 8b). The settings on record: liver microsomes, pH 7.4. (Liver microsomes are a subcellular fraction often used to study metabolism.)
Protocol: The reaction was started with addition of excess NADPH (5 mg/mL, 15 μL in 0.1 M potassium phosphate buffer, 1.0 mM EDTA, pH 7.4), the total volume is 45 μL (compound final concentration was 1 μM). […] 50 μL of the supernatant was transferred from each well into a 96-well sample plate containing 50 μL of ultra-pure water (Millipore) for LC-MS/MS analysis.
In series [4] the target is T1, CYP17 (human testicular microsome). As to the kind of experiment: CYP17 enzymatic assay (% inhibition at 10 nM), version 1 (Biological Example 5). The class given is biochemical. The settings on record: compound at 10 nM, read-out: CYP17 enzymatic assay % inhibition at 10 nM (Biological Example No. 5).
Where [5] appears, read: human testicular microsome, read-out: CYP17 enzymatic assay IC50 (Biological Example No. 4).
The mark [6] stands for this setting: read-out: CYP17 enzymatic assay % inhibition at 1 nM (Biological Example No. 12).
Setting [7] is: human testicular microsome, read-out: Biological Example No. 4: CYP17 enzymatic assay IC50.
The mark [8] stands for this setting: read-out: Biological Example No. 12: CYP17 enzymatic assay % inhibition at 1 nM.

Take `CC(=O)N[C@@H]1CC[C@@]2(C)C(CCC3C2CC[C@]2(C)C(c4cccnc4)=CCC32)C1` (stereo partly drawn) [Compound 215, N-((3R,10S,13S)-10,13-dimethyl-17-(pyridin-3-yl)-2,3,4,5,6,7,8,9,10,11,12,13,14,15-tetradecahydro-1H-cyclopenta[a]phenanthren-3-yl)acetamide]: the IC50 in series [1] (setting [5]) was under 11 nM. In addition, in series [2] (setting [6]), the inhibition at 0.001 µM is over 50%. Moreover, the half-life at 1 μM in series [3] was in the range of 1 to 50 min.
With `CC1(C)C2=CCC3C4=CC=C(c5cccnc5)[C@@]4(C)CCC3[C@@]2(C)CCC1O` (stereo partly drawn) [Compound 298, (10R,13S)-4,4,10,13-tetramethyl-17-(pyridin-3-yl)-2,3,4,7,8,9,10,11,12,13-decahydro-1H-cyclopenta[a]phenanthren-3-ol], the concentration for half-maximal inhibition (IC50) in series [1] (setting [5]) was over 25 nM. Moreover, in series [2] (setting [6]), the inhibition at 0.001 µM fell in the range of 10 to 50%. The compound further gave a half-life at 1 μM in series [3] of 1 to 50 min.
As to `C[C@]12CC[C@H](O)CC1=CC[C@@H]1[C@@H]2CC[C@]2(C)C(c3cnccc3F)=CC[C@@H]12` [Cmpd 285], the IC50 in series [1] (setting [7]) is under 11 nM. The half-life at 1 μM in series [3] lay in the range of 1 to 50 min.
In the case of `C[C@]12CCC3C(CC(F)[C@]4(O)C[C@@H](O)CC[C@]34C)C1CC=C2c1cccnc1` (stereo partly drawn) [Compound 322, (3S,5S,10R,13S)-6-fluoro-10,13-dimethyl-17-(pyridin-3-yl)-2,3,4,5,6,7,8,9,10,11,12,13,14,15-tetradecahydro-1H-cyclopenta[a]phenanthrene-3,5-diol], the 50% inhibitory concentration (IC50) in series [1] (setting [7]) was under 11 nM. In addition, in series [2] (setting [8]), the inhibition at 0.001 µM is over 50%. In series [3], this compound showed a half-life at 1 μM of 1 to 50 min.
As to `C[C@]12CC[C@H](O)CC1=CCC1C2CC[C@]2(C)C(c3ccc(F)nc3)=CCC12` (stereo partly drawn) [Compound 276, (3S,10R,13S)-17-(6-fluoropyridin-3-yl)-10,13-dimethyl-2,3,4,7,8,9,10,11,12,13,14,15-dodecahydro-1H-cyclopenta[a]phenanthren-3-ol], the IC50 in series [1] (setting [7]) was over 25 nM. Besides, the inhibition at 0.001 µM in series [2] (setting [8]) was in the range of 10 to 50%. Also, the half-life at 1 μM in series [3] lay in the range of 1 to 50 min.
In series [1], `C[C@]1(O)CC[C@@]2(C)C(CCC3C4=CC=C(c5cccnc5)[C@@]4(C)CCC32)C1` (stereo partly drawn) [Compound 259, (3S,10S,13S)-3,10,13-trimethyl-17-(pyridin-3-yl)-2,3,4,5,6,7,8,9,10,11,12,13-dodecahydro-1H-cyclopenta[a]phenanthren-3-ol] had an IC50 of under 11 nM. In addition, in series [2] (setting [6]), the inhibition at 0.001 µM fell in the range of 10 to 50%. Further, the half-life at 1 μM in series [3] is 1 to 50 min.
Turning to `C[C@]12CCC3C(CC=C4C[C@H](O)CC[C@@]43C)C1=CC=C2c1cccnc1` (stereo partly drawn) [Compound 199, (3R,10R,13S)-10,13-dimethyl-17-(pyridin-3-yl)-2,3,4,7,8,9,10,11,12,13-decahydro-1H-cyclopenta[a]phenanthren-3-ol], in series [1] (setting [5]), the IC50 was under 11 nM. In addition, the inhibition at 0.001 µM in series [2] (setting [6]) was over 50%. Moreover, the half-life at 1 μM in series [3] was in the range of 1 to 50 min.
For `C[C@]12CC[C@@H](NC(=O)C3CC3)CC1=CCC1C2CC[C@]2(C)C(c3cccnc3)=CCC12` (stereo partly drawn) [Compound 224, N-((3R,10R,13S)-10,13-dimethyl-17-(pyridin-3-yl)-2,3,4,7,8,9,10,11,12,13,14,15-dodecahydro-1H-cyclopenta[a]phenanthren-3-yl)cyclopropanecarboxamide], in that order: under 11 nM, over 50% and 1 to 50 min.
With `C[C@]12CC[C@H](O)CC1=CCC1C2CC[C@]2(C)C(c3cncc(Cl)c3)=CCC12` (stereo partly drawn) [Compound 280, (3S,10R,13S)-17-(5-chloropyridin-3-yl)-10,13-dimethyl-2,3,4,7,8,9,10,11,12,13,14,15-dodecahydro-1H-cyclopenta[a]phenanthren-3-ol], the IC50 in series [1] (setting [7]) is under 11 nM. Besides, the inhibition at 0.001 µM in series [2] (setting [8]) was over 50%. In series [3], this compound registered a half-life at 1 μM of 1 to 50 min.
Regarding `COC1C[C@H]2[C@@H]3CC=C(n4ccnc4)[C@@]3(C)CC[C@@H]2[C@@]2(C)CCC3CC312` (stereo partly drawn) [Compound 236, 1-((3aR,5aS)-10-methoxy-3a,5a-dimethyl-1,1a,2,3,3a,3b,4,5,5a,8,8a,8b,9,10-tetradecahydrocyclopenta[a]cyclopropa[2,3]cyclopenta[1,2-f]naphthalen-6-yl)-1H-imidazole], the 50% inhibitory concentration (IC50) in series [1] (setting [5]) is under 11 nM. Moreover, the inhibition at 0.01 µM in series [4] is over 80%. The inhibition at 0.001 µM in series [2] (setting [6]) lay within 10 to 50%.
Regarding `CC(=O)N[C@@H]1CC[C@@]2(C)C(=CCC3C2CC[C@]2(C)C(c4cncc(C(F)F)c4)=CCC32)C1` (stereo partly drawn) [Compound 480, N-((3R,10R,13S)-17-(5-(difluoromethyl)pyridin-3-yl)-10,13-dimethyl-2,3,4,7,8,9,10,11,12,13,14,15-dodecahydro-1H-cyclopenta[a]phenanthren-3-yl)acetamide], the IC50 in series [1] (setting [7]) was under 11 nM. Also, the inhibition at 0.001 µM in series [2] (setting [8]) was over 50%. In addition, the half-life at 1 μM in series [3] lay in the range of 1 to 50 min.
`C[C@]12CC[C@H](O)C[C@@H]1CC[C@@H]1[C@@H]2CC[C@]2(C)C(n3ccnn3)=CC[C@@H]12` [Compound 451, (3S,5S,8R,9S,10S,13S,14S)-10,13-dimethyl-17-(1H-1,2,3-triazol-1-yl)-2,3,4,5,6,7,8,9,10,11,12,13,14,15-tetradecahydro-1H-cyclopenta[a]phenanthren-3-ol]: the IC50 in series [1] (setting [5]) was under 11 nM. Also, the inhibition at 0.01 µM in series [4] is over 80%. The inhibition at 0.001 µM in series [2] (setting [6]) was over 50%.
For the compound `C[C@]12CC[C@H](O)CC1=CCC1C2CC[C@]2(C)C(c3cncc(N)c3)=CCC12` (stereo partly drawn) [Compound 283, (3S,10R,13S)-17-(5-aminopyridin-3-yl)-10,13-dimethyl-2,3,4,7,8,9,10,11,12,13,14,15-dodecahydro-1H-cyclopenta[a]phenanthren-3-ol], the IC50 in series [1] (setting [7]) was under 11 nM. Further, in series [2] (setting [8]), the inhibition at 0.001 µM is over 50%. In series [3], the half-life at 1 μM was over 50 min.
As to `C[C@]12CC[C@@H](NC(=O)C3CC3)CC1CCC1C2CC[C@]2(C)C(c3cccnc3)=CCC12` (stereo partly drawn) [Compound 220, N-((3R,10S,13S)-10,13-dimethyl-17-(pyridin-3-yl)-2,3,4,5,6,7,8,9,10,11,12,13,14,15-tetradecahydro-1H-cyclopenta[a]phenanthren-3-yl)cyclopropanecarboxamide], the IC50 in series [1] (setting [5]) is under 11 nM. The inhibition at 0.001 µM in series [2] (setting [6]) is over 50%. For the same compound, the half-life at 1 μM in series [3] was 1 to 50 min.
On to `CC(=O)N[C@@H]1CC[C@@]2(C)C(=CC[C@@H]3[C@@H]2CC[C@]2(C)C(c4cncc(F)c4)=CC[C@@H]32)C1` [Compound 427, N-((3R,10R,13S)-17-(5-fluoropyridin-3-yl)-10,13-dimethyl-2,3,4,7,8,9,10,11,12,13,14,15-dodecahydro-1H-cyclopenta[a]phenanthren-3-yl)acetamide], for which, in series [1] (setting [7]), the IC50 is under 11 nM. Besides, in series [2] (setting [8]), the inhibition at 0.001 µM is over 50%. In addition, the half-life at 1 μM in series [3] is 1 to 50 min.
For the compound `COc1cncc(C2=CC[C@H]3[C@@H]4CC=C5C[C@H](NC(=O)C6CC6)CC[C@]5(C)[C@H]4CC[C@]23C)c1` [Compound 230, N-((3R,10R,13S)-17-(5-methoxypyridin-3-yl)-10,13-dimethyl-2,3,4,7,8,9,10,11,12,13,14,15-dodecahydro-1H-cyclopenta[a]phenanthren-3-yl)cyclopropanecarboxamide], in series [1] (setting [5]), the IC50 is under 11 nM. Further, the inhibition at 0.001 µM in series [2] (setting [6]) was over 50%. The compound also had a half-life at 1 μM in series [3] of 1 to 50 min.
